In assay [1] the test system is murine peritoneal mast cells. Put plainly: Mast cell degranulation by flow cytometry (surface Lamp1 and avidin binding) after compound 48/80. It is filed as cell-based. The conditions noted are these: for mast cell degranulation (mast cell activation): 48 hours incubation, compound 48/80 20 ug/ml 20 minutes, FIG. 1B; for degranulation of PCMC in response to MrgprB2: in vitro, dose-dependent manner. As to the method:
Primary mast cell cultures derived from murine peritoneal mast cells were incubated for 48 hours with kainic acid (0.1, 1.0, 10 and 100 uM), glutamate (6 mM) or vehicle control. Cultures were then exposed to the synthetic MrgprB2 ligand, compound 48/80, at 20 ug/ml for 20 minutes. The extent of mast cell degranulation was determined based on surface expression of Lamp1 protein and avidin binding using flow cytometry gated on CD117+ FcεR+ mast cells. Representative flow plots from unstimulated cells (control) and cells stimulated with compound 48/80 are shown (FIG. 1A). […] A similar set of experiments were performed using mast cells incubated with the selective GluK2 agonist, SYM2081 at 1600 nM concentration (FIGS. 1C and 1D). […] Each symbol represents data from a single well of mast cells.

The test system of assay [2] is mast cells in whole human skin explants. The experiment in a line: Whole human skin explants, degranulated mast cells by toluidine blue after compound 48/80. It is filed as cell-based. The conditions noted are these: 1600 nM for 48 hours; compound 48/80 240 ug/ml 20 minutes; FIG. 2C. How it is done: (§1) Cohorts of 7-9-week-old female C57BL/6 mice were given 20 ul intradermal flank injections of 1600 nM SYM2081 or control PBS twice a day for 2 days. Evans Blue dye was introduced by intravenous injection to allow for quantification of edema followed by intradermal injection of control PBS or compound 48/80 (20 ul 10 ug/ml). The amount of Evans blue dye released into the skin which quantifies edema and is an indirect measure of mast cell degranulation was measured 20 minutes later (FIG. 2A). […] The percentage of degranulated mast cells was also quantified by direct microscopic visualization of skin samples stained with toluidine blue (FIG. 2B). Whole human skin explants were cultured in control PBS or 1600 nM SYM2081 for 48 hours. Sample were exposed to compound 48/80 (240 ug/ml) for 20 minutes followed by direct microscopic visualization of skin samples stained with toluidine blue (FIG. 2C). […] Finally, C57BL/6 mice were treated with intradermal injection of control PBS or SYM2081 for 2 days as above. Mice were then challenged by application of 0.5% croton oil, an irritant, on 1 ear and the degree of ear swelling which is reflective of the extent of irritant dermatitis was measured (FIG. 2D). […] Each symbol represents data from an individual animal.

The test system of another assay is dermal mast cells. The experiment in a line: Evans Blue dye edema after intradermal compound 48/80 in mice. It is filed as in vivo, C57BL/6 mice. Particulars: compound 48/80 challenge, 20 minutes. How it is done: Cohorts of 7-9-week-old female C57BL/6 mice were given 20 ul intradermal flank injections of 1600 nM SYM2081 or control PBS twice a day for 2 days. Evans Blue dye was introduced by intravenous injection to allow for quantification of edema followed by intradermal injection of control PBS or compound 48/80 (20 ul 10 ug/ml). The amount of Evans blue dye released into the skin which quantifies edema and is an indirect measure of mast cell degranulation was measured 20 minutes later (FIG. 2A). […] The percentage of degranulated mast cells was also quantified by direct microscopic visualization of skin samples stained with toluidine blue (FIG. 2B). […] Mice were then challenged by application of 0.5% croton oil, an irritant, on 1 ear and the degree of ear swelling which is reflective of the extent of irritant dermatitis was measured (FIG. 2D). […]
Cohorts of 7-9-week-old female C57BL/6 mice were treated with 5.0% SYM2081 formulated into a light base or vehicle alone on the flank twice daily for 2 days. Evans Blue dye was introduced by intravenous injection to allow for quantification of edema followed by intradermal injection of control PBS or compound 48/80 (20 ul 10 ug/ml). The amount of Evans blue dye released into the skin which quantifies edema and is an indirect measure of mast cell degranulation was measured 20 minutes later (FIG. 3A). […]

For another assay, the system named is contact hypersensitivity. The experiment in a line: DNFB contact hypersensitivity, ear thickness. The class given is in vivo, mice. Particulars: topical SYM2081 on shaved abdomen twice daily for 2 days; 0.5% DNFB sensitization, 0.25% DNFB challenge; 7 days; FIG. 3B.
The subject of a further assay is irritant dermatitis. Put plainly: Croton oil-induced irritant dermatitis, ear swelling. It is filed as in vivo, C57BL/6 mice. Particulars: intradermal SYM2081 for 2 days; 0.5% croton oil on 1 ear; FIG. 2D. How it is done:
as §1

Assay [3] relates to murine peritoneal mast cells. The experiment in a line: β-hexosaminidase release from mast cells. It is filed as cell-based. The conditions noted are these: preincubated with SYM2081 at 100 nM and 1600 nM; FIG. 1F.

In general, IC50 refers to the point on the concentration scale where inhibition reaches its midpoint.

Entries after “also recorded” stand apart in the source; their conditions may differ.

As to `N[C@@H](CCC(=O)O)C(=O)O` [glutamate], in assay [1] (glutamate 6 mM), the “mast cell degranulation (mast cell activation)” value is given as “suppress mast cell activation”. Further, the “degranulation of PCMC in response to MrgprB2” value (from here on “degranulation of PCMC”) in assay [1] is on record as “suppressed”.
`C=C(C)[C@H]1CN[C@H](C(=O)O)[C@H]1CC(=O)O` [kainic acid]: the “degranulation of PCMC” value in assay [1] is recorded as “suppressed”. Moreover, the “mast cell degranulation (mast cell activation)” value in assay [1] (kainic acid 0.1, 1.0, 10 and 100 uM) is “suppress mast cell activation”.
In the case of `C[C@H](C[C@H](N)C(=O)O)C(=O)O` [SYM2081, (2S,4R)-4-methylglutamic acid], the “percentage of degranulated mast cells” value in assay [2] is “reduced percentage of degranulated mast cells”. Also, the “effective concentration (suppression of mast cells)” value in assay [1] (FIG. 1E) is “at least 0.1 nM”. In addition, the IC50 in assay [1] (Mus musculus, Mast cell, read-out: IC50 of suppression of mast cells (degranulation)) worked out at 2.27 nM. Also, the “degranulation of PCMC” value in assay [1] was “suppressed”. Moreover, the “edema (Evans blue dye released into the skin), indirect measure of mast cell degranulation” value in the assay with dermal mast cells (20 ul intradermal 1600 nM SYM2081 twice a day for 2 days, FIG. 2A) is reported as “effective to reduce mast cell degranulation; also recorded: suppressed; also recorded: significant reduction in edema”; in the assay on dermal mast cells (topical 5.0% SYM2081 in a light base on flank twice daily for 2 days, FIG. 3A), “effective to reduce mast cell degranulation; also recorded: significant reduction in edema”. In addition, the “increased ear thickness (inflammation) in response to DNFB” value with contact hypersensitivity was “reduced inflammation”. The “ear swelling (irritant dermatitis)” value with irritant dermatitis is on record as “attenuated; also recorded: reduced ear swelling”. Further, the “release of β-hexosaminidase” value in assay [3] was “decreased”.

Values taken from patent publication US20240342136A1, “Glutamate receptor agonists for suppression of mast cell function” (University of Pittsburgh - Of the Commonwealth System of …, priority 2023, published 2024).
